According to BindingDB's records for doi:10.1016/j.bmcl.2004.03.067 (Pfizer, 2004):

Tests used:
[1] = Inhibition of Phosphodiesterase 5
[2] = Inhibition of Phosphodiesterase 5; remark: listed apart in the source

SMILES	IC50 [1]	IC50 [2]
COc1cc2c3c(n1)C(c1ccccc1)=N[C@@H](NC(=O)c1cccnc1)C(=O)N3CC2	> 100 µM	–
COc1cc2c3c(n1)C(c1ccccc1)=NCC(=O)N3CC2 [4-Methoxy-6-phenyl-1,2-dihydro-8H-5,7,9a-triaza-benzo[cd]azulen-9-one]	91 µM	–
COc1cc2c3c(n1)C(c1ccccc1)=NC(NC(=O)c1cccnc1)C(=O)N3CC2 (centres undefined) [N-(4-methoxy-9-oxo-6-phenyl-1,2,8,9-tetrahydro-5,7,9a-triazabenzo[cd]azulen-8-yl)nicotinamide]	> 100 µM	95 µM
